Test results published in US6433009B1, “Sulfonyl urea derivatives and their use in the control of interleukin-1 activity” (Pfizer Inc, priority 1997, dated 2002).

melting point	Structure (SMILES)
151.6 to 153.5 °C	CC(=O)c1cccc(S(=O)(=O)NC(=O)Nc2c(C(C)C)cccc2C(C)C)c1 [Example 56, 1-(3-Acetyl-benzenesulfonyl)-3-(2,6-diisopropyl-phenyl)-urea]
239 °C (dec.)	O=C(Nc1c2c(cc3c1CCC3)CCC2)NS(=O)(=O)c1ccc2[nH]cnc2c1 [Example 127, 1-(1H-Benzoimidazole-5-sulfonyl)-3-(1,2,3,5,6,7-hexahydro-s-indacen-4-yl)-urea]
